Data set [1] concerns MCF7. Description: Cytotoxicity against human MCF7 cells by SRB assay. Type of data set: functional, cell-based. For orientation: Sulforhodamine B stains cellular protein and so reports cell mass.
Data set [2] in a line: Inhibition of Hepatitis C virus NS3 protease. It is filed as functional, Hepacivirus hominis.
The target in data set [3] is T1, Androgen receptor (Homo sapiens, UniProt P10275).
T1 sequence (P10275 whole entry): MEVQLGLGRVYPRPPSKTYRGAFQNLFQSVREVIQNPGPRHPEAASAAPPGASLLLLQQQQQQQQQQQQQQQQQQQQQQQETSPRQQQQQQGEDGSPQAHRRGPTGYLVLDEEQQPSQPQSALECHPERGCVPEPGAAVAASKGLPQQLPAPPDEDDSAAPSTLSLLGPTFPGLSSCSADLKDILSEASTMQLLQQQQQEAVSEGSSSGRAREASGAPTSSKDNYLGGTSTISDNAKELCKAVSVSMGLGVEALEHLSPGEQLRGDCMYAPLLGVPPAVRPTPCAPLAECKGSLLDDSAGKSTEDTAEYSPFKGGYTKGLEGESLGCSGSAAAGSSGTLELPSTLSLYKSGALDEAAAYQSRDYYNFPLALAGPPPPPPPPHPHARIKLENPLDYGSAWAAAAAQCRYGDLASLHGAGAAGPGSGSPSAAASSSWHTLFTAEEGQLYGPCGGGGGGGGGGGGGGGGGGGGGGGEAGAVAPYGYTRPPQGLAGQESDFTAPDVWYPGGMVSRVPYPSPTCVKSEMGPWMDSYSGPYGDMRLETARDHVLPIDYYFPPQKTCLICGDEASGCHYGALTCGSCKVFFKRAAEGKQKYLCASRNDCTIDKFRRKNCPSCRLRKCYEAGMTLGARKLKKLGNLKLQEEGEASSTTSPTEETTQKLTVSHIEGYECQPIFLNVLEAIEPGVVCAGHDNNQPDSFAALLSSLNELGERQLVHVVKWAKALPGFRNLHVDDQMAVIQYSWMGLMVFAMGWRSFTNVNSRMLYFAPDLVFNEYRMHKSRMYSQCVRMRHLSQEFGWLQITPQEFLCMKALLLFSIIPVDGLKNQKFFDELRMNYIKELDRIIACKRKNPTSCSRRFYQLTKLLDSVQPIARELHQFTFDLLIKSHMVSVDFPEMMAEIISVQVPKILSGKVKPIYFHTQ
Description: Antagonist activity at androgen receptor (unknown origin).

In data set [4] the test system is Staphylococcus aureus. Description: Antibacterial activity against Staphylococcus aureus assessed as zone of inhibition at 5 mg/ml. Particulars: read-out: IZ. It is filed as functional.
Data set [5] is described as follows: Antioxidant activity assessed as ABTS radical scavenging activity. Type of data set: functional.
Data set [6] has as its system CHO-K1. Kind of data set: Cytotoxicity against CHO-K1 cells by MTT assay. Particulars: chinese hamster. Type of data set: toxicity, cell-based, Cricetulus griseus. On the set-up: concentration or dose not given beside the values. Background: Formazan colour is commonly taken as a measure of viable cells.
Data set [7] has as its system Staphylococcus aureus. Description: Antibacterial activity against Staphylococcus aureus assessed as zone of inhibition. Type of data set: functional.
Data set [8] deals with Staphylococcus aureus. Kind of data set: Antibacterial activity against Staphylococcus aureus. It is filed as functional.
For data set [9], the system named is Aspergillus niger. Kind of data set: Antifungal activity against Aspergillus niger. Type of data set: functional.
In data set [10] the test system is Pseudomonas aeruginosa. Kind of data set: Antibacterial activity against Pseudomonas aeruginosa assessed as zone of inhibition. Type of data set: functional.
In data set [11] the test system is Pseudomonas aeruginosa. Description: Antibacterial activity against Pseudomonas aeruginosa. It is filed as functional.
For data set [12], the system named is Bacillus subtilis. Description: Antibacterial activity against Bacillus subtilis assessed as zone of inhibition. It is filed as functional.
Data set [13] relates to Bacillus subtilis. Kind of data set: Antibacterial activity against Bacillus subtilis. Type of data set: functional.
The test system of data set [14] is Escherichia coli. Kind of data set: Antibacterial activity against Escherichia coli assessed as zone of inhibition. Type of data set: functional.
In data set [15] the test system is Escherichia coli. Description: Antibacterial activity against Escherichia coli. Type of data set: functional.
Data set [16] deals with MCF7. Description: Cytotoxicity against human MCF7 cells by MTT assay. It is filed as functional, cell-based.
The subject of data set [17] is HepG2. Kind of data set: Cytotoxicity against human HepG2 cells by MTT assay. Type of data set: functional, cell-based.
Data set [18] has as its system HCT-116. Description: Cytotoxicity against human HCT-116 cells by MTT assay. Type of data set: functional, cell-based.
Data set [19] has as its system Bacillus subtilis. Kind of data set: Antibacterial activity against Bacillus subtilis assessed as zone of inhibition at 5 mg/ml. It is filed as functional. Particulars: read-out: IZ.
Data set [20] deals with Escherichia coli. Description: Antibacterial activity against Escherichia coli assessed as zone of inhibition at 5 mg/ml. Particulars: read-out: IZ. Type of data set: functional.
Data set [21] deals with Aspergillus niger. Description: Antifungal activity against Aspergillus niger assessed as zone of inhibition. It is filed as functional.
The subject of data set [22] is Salmonella typhimurium. Kind of data set: Antibacterial activity against Salmonella typhimurium assessed as zone of inhibition. Type of data set: functional, Salmonella enterica subsp. enterica serovar Typhimurium.
Data set [23] concerns Candida albicans. Kind of data set: Antifungal activity against Candida albicans. It is filed as functional.
For data set [24], the system named is Aspergillus clavatus. Description: Antifungal activity against Aspergillus clavatus. It is filed as functional.
Data set [25] deals with T2, Prostaglandin G/H synthase 1 (Ovis aries, UniProt P05979).
T2 sequence (P05979 whole entry): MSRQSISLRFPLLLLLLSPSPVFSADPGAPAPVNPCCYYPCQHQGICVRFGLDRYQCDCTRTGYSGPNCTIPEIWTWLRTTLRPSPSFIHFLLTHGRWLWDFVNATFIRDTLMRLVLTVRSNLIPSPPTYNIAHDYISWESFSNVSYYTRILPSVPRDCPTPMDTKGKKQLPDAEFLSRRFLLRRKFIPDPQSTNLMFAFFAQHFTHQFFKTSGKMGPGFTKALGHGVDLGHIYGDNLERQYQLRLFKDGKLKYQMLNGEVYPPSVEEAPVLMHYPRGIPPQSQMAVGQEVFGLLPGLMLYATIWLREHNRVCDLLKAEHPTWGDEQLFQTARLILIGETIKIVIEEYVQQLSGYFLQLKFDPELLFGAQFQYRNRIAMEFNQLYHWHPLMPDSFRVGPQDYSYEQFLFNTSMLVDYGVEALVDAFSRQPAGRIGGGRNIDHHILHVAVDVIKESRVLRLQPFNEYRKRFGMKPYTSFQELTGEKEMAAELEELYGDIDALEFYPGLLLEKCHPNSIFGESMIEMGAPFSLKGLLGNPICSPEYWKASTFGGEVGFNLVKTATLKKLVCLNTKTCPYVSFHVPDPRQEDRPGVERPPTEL
Description: Inhibition of ovine COX-1.

Data set [26] deals with Rattus norvegicus. Kind of data set: Antiinflammatory activity in rat assessed as inhibition of carrageenan induced paw edema at 50 mg/kg. Type of data set: functional. On the set-up: scale not given: the % may be the effect or the level left. In general terms: Carrageenan injected into the paw causes an acute inflammation.
Data set [27] is described as follows: Inhibition of soybean 15-LOX. Also noted: species or system Glycine max.

Each structure is given as a SMILES string. ≈ marks a conversion by molar mass, not a printed value.

On to `CCOP(=O)(OCC)C1C(C(=O)c2ccccc2O)=CN=C2CC(O)=NN21` (centres undefined), for which the IC50 (in general, the concentration that gives 50% inhibition) in data set [1] worked out at 21.9 µg/mL (≈ 55.7 µM).

Consider `N#C/C(=C/c1ccc(Cl)cc1)c1nn2c(-c3cccs3)cc(C(F)(F)F)nc2c1C#N`, for which the half-inhibitory concentration (IC50) in data set [2] is 7.33 µg/mL (≈ 16.1 µM).

With `O=C(O)c1nn2c(c1Cl)NC(c1ccccc1)CC2C(F)(F)F` (centres undefined), the IC50 in data set [3] came out at 487 µM.

Turning to `Nc1nc2c(/N=N/c3ccc(C(F)(F)F)cc3)c(N)nn2c(N)c1/N=N/c1ccc(F)cc1`, the zone of inhibition at 5000 µg/mL in data set [4] worked out at 10 mm.

Regarding `Cc1c(C)c2c(c(C)c1O)CCC(C)(C(=O)O)O2` (centres undefined), the Activity in data set [5] turned out to be 1 µM.

Regarding `Cc1c(NC(=O)c2cnn3cc(-c4ccccc4)cnc23)c(=O)n(-c2ccccc2)n1C`, the Activity in data set [6] came to 97.1%.

With `NC(=O)c1c(Nc2ccccc2)nn2c(-c3ccccc3)ccnc12`, the “inhibition zone (IZ)” value is 10 mm in [7], 9 mm in [10], 12 mm in data set [12] and 7 mm in data set [14]. In addition, the MIC (in general, the lowest concentration found to suppress growth) was determined as 7.81 µg/mL (≈ 23.7 µM) in data set [8]; 15.6 µg/mL (≈ 47.4 µM) in data set [9]; 7.81 µg/mL (≈ 23.7 µM) in data set [11]; 3.9 µg/mL (≈ 11.8 µM) in data set [13]; 15.6 µg/mL (≈ 47.4 µM) in [15].

Regarding `Nc1nc2c(/N=N/c3ccc(C(F)(F)F)cc3)c(N)nn2c(N)c1/N=N/c1ccc(C(F)(F)F)cc1`, the IC50 was found to be 0.3 µg/mL (≈ 0.59 µM) in data set [16], 0.6 µg/mL (≈ 1.18 µM) in data set [17] and 0.4 µg/mL (≈ 0.787 µM) in [18]. Moreover, the zone of inhibition at 5000 µg/mL in [19] turned out to be 8 mm.

With `Nc1nc2c(/N=N/c3ccc(F)cc3)c(N)nn2c(N)c1/N=N/c1ccc(F)cc1`, in [20], the zone of inhibition at 5000 µg/mL came out at 10 mm.

For `Nc1nn2c(-c3ccc(S(=O)(=O)c4ccccc4)cc3)ccnc2c1/N=N/c1ccccc1[N+](=O)[O-]`, the “inhibition zone (IZ)” value was 26.3 mm in data set [21], 26.6 mm in data set [22] and 25.5 mm in data set [14].

Take `CC/C(=C(\c1ccccc1)c1ccc(OCCN(C)C)cc1)c1ccccc1` [TAMOXIFEN]: the half-inhibitory concentration (IC50) in data set [1] turned out to be 8.5 µg/mL (≈ 22.9 µM).

`COc1ccc(Nc2nn3c(N)c(C#N)c(-c4ccc(F)cc4)nc3c2C(N)=O)cc1` displayed an MIC in data set [23] of 15.6 µg/mL (≈ 37.4 µM).

Turning to `Cc1ccc(-n2cnc3c(cnn3-c3cc(C)nc4c(C#N)cnn34)c2=O)cc1`, the MIC in data set [24] and in data set [9] was 10 µg/mL (≈ 26.2 µM) in each case. Besides, the “inhibition zone (IZ)” value in data set [12] was found to be 14 mm; in data set [14], 12.2 mm.

In turn, `Cc1ccc(C2CC(C(F)(F)F)n3nc(C(N)=O)cc3N2)cc1` (centres undefined) showed an IC50 in data set [3] of 45.8 µM.

With `COc1ccnc(Nc2nn3c(C)cc(C)nc3c2C#N)c1`, the IC50 in data set [25] amounted to 8.5 µM; in data set [27], 5.6 µM. Also, in data set [26], the Activity was 46%.

Compound `O=C(C1=CN=C2CC(O)=NN2C1P(=O)(OCCCl)OCCCl)c1ccccc1O` (centres undefined) yielded an IC50 in data set [1] of 39.7 µg/mL (≈ 85.9 µM).

The values are drawn from ChEMBL document CHEMBL5241120, “Insights into the medicinal chemistry of heterocycles integrated with a pyrazolo[1,5-a]pyrimidine scaffold” (RSC Med Chem, 2022).
